According to patent US12351653B1, “Pharmaceutical compositions comprising novel cyclic peptides” (LISATA THERAPEUTICS, INC., priority 2019, dated 2025):

Key:
[1] = test system: metastatic pancreatic cancer; experiment: Phase I trial (CEND-001) of CEND-1 with gemcitabine and nab-paclitaxel: response and survival; assay type: in vivo, human
Description: (§1) Patients will first receive the intravenous infusion of nabpaclitaxel (125 mg/m^2 over 30 minutes (±3 minutes)).
(§2) Patients (n=31) who had measurable metastatic pancreatic cancer, no prior treatments for metastatic disease and an ECOG PS of 0 to 1 were included. Primary endpoints are safety and optimal biologic dose, secondary and exploratory endpoints included response rates, pharmacokinetics and biomarkers.

[2] = test system: CA19-9; experiment: Phase I trial (CEND-001): tumor biomarker CA19-9; assay type: in vivo, human; conditions: with nab-paclitaxel and gemcitabine
Description: as §1, §2
Of these, 23 patients had at least one on-treatment CA19-9 measurement.

[3] = with nab-paclitaxel and gemcitabine
[4] = with nab-paclitaxel and gemcitabine, RECIST 1.1, 29 evaluable patients
[5] = patients with elevated baseline CA19-9 and a postbaseline assessment (23)

Substance: Ac-Cys-Arg-Gly-Asp-Lys-Gly-Pro-Asp-Cys-NH2 (Cys & Cys Bridge) [CEND-1]
- Complete response ([1]; with nab-paclitaxel 125 mg/m^2 and gemcitabine 1000 mg/m^2, investigator assessed RECIST 1.1, 29 evaluable patients): 3.4%
- Median time to progression [1, 3]: approximately 9.7 months
- Response rates relative to the benchmark trials [1, 3]: > 2 times
- Patients with progression ([1]; with nab-paclitaxel and gemcitabine, 16/29 patients): 55.2%
- Confirmed objective responses (OR) ([1]; with nab-paclitaxel and gemcitabine, 17/29 patients (95% CI=38.9, 76.5)): 58.6%
- Partial response [1, 4]: 55%
- Progressive disease [1, 4]: 6.9%
- Stable disease [1, 4]: 34%
- Overall response rate (ORR) ([1]; with nab-paclitaxel and gemcitabine, all evaluable patients (N=29)): 59%
- Median (IQR) PFS ([1]; with nab-paclitaxel and gemcitabine, at study closure): 9.7 months
- Overall disease control rate for 16 weeks ([1]; with nab-paclitaxel and gemcitabine, evaluable patients (N=29)): 79%
- Patients with a ≥50% reduction in CA19-9 from Baseline ([2]; Cycle 5 Day 1, 20/22 patients): 90.9%
- Patients with CA19-9 decrease from baseline of at least 20% [2, 5]: 96%
- Patients with CA19-9 decrease of at least 90% and/or CA19-9 levels normalized [2, 5]: 74%
